Paper PMC4963206 (ChemMedChem, 2016)
Read-outs that look alike come from different tables or passages of the source.

How the values were obtained:
AR230 cells = assay: Phenotypic screening / cytotoxicity in CML cell line AR230; format: cell-based; details: read-out: IC50 AR230
AR230^R cells = assay: Phenotypic screening / cytotoxicity in TKI-resistant CML cell line AR230^R; format: cell-based; details: for IC50: read-out: IC50 AR230^R; for Fold Difference: Table 3, AR230 vs AR230^R

With `O=C(O)c1ccc(N(Cc2ccc(C3CCCC3)cc2)C(=O)CN(C2CC2)S(=O)(=O)c2c(F)c(F)c(Br)c(F)c2F)cc1` [AM1-077, 4-(N-(4-Cyclopentylbenzyl)-2-((N-cyclopropyl-2,3,5,6-tetrafluoro-4-bromophenyl)sulfonamido)acetamido)benzoic acid] the IC50 (AR230 cells; Table 4) was 25.1 µM and the IC50 (AR230^R cells; Table 4) was 20.3 µM.

In the case of `O=C(O)c1ccc(N(Cc2ccc(C3CCCC3)cc2)C(=O)CN(C2CC2)S(=O)(=O)c2c(F)c(F)c(Cl)c(F)c2F)cc1` [AM1-112, 4-(N-(4-Cyclopentylbenzyl)-2-((N-cyclopropyl-2,3,5,6-tetrafluoro-4-chlorophenyl)sulfonamido)acetamido)benzoic acid], the IC50 (AR230 cells; Table 4) is reported as > 32 µM and the IC50 (AR230^R cells; Table 4) is reported as 30.7 µM.

For `O=C(O)c1ccc(N(Cc2ccc(N3CCOCC3)cc2)C(=O)CN(C2CC2)S(=O)(=O)c2c(F)c(F)c(F)c(F)c2F)cc1` [PSL-3-089], the IC50 (AR230 cells; Table 3) was 7.4 µM, the “Fold Difference” value (AR230^R cells) was 1.42 and the IC50 (AR230^R cells; Table 3) was 5.2 µM.

`O=C(O)c1ccc(N(Cc2ccc(C3CCCCCC3)cc2)C(=O)CN(C2CC2)S(=O)(=O)c2c(F)c(F)c(F)c(F)c2F)cc1` [DR-3-165, 4-(N-(4-Cycloheptylbenzyl)-2-((N-cyclopropyl-2,3,4,5,6-pentafluorophenyl)sulfonamido)acetamido)benzoic acid] was tested, and the IC50 (AR230 cells; Table 3) was 2.7 µM, the “Fold Difference” value (AR230^R cells) was 2.45 and the IC50 (AR230^R cells; Table 3) was 1.1 µM.

With `O=C(O)c1ccc(N(Cc2ccc(C3CCCC3)cc2)C(=O)CN(C2CC2)S(=O)(=O)c2ccccn2)cc1` [RG1-085, 4-(N-(4-Cyclopentylbenzyl)-2-(N-cyclopropylpyridine-2-sulfonamido)acetamido)benzoic acid] the IC50 (AR230 cells) was > 32 µM and the IC50 (AR230^R cells) was > 32 µM.

With `O=C(O)c1ccc(N(Cc2ccc(C3CCCC3)cc2)C(=O)CN(C2CC2)S(=O)(=O)c2cccnc2)cc1` [RG1-066, 4-(N-(4-Cyclopentylbenzyl)-2-(N-cyclopropylpyridine-3-sulfonamido)acetamido)benzoic acid] the IC50 (AR230 cells) was > 32 µM and the IC50 (AR230^R cells) was > 32 µM.

`Cc1c(F)c(F)c(S(=O)(=O)N(CC(=O)N(Cc2ccc(C3CCCC3)cc2)c2ccc(C(=O)O)cc2)C2CC2)c(F)c1F` [AM1-030, 4-(N-(4-Cyclopentylbenzyl)-2-((N-cyclopropyl-2,3,5,6-tetrafluoro-4-methylphenyl)sulfonamido)acetamido)benzoic acid] was tested, and the IC50 (AR230 cells; Table 4) was > 32 µM and the IC50 (AR230^R cells; Table 4) was 18.6 µM.

`CC(C)(C)c1ccc(CN(C(=O)CN(C2CC2)S(=O)(=O)c2ccc(F)cc2)c2ccc(C(=O)O)cc2)cc1` [AES1-094, 4-(N-(4-(tert-butyl)benzyl)-2-((N-cyclopropyl-4-fluorophenyl)sulfonamido)acetamido)benzoic acid] was tested, and the IC50 (AR230 cells; Table 4) was > 32 µM and the IC50 (AR230^R cells; Table 4) was 10.6 µM.

With `O=C(O)c1ccc(N(Cc2ccccc2)C(=O)CN(C2CC2)S(=O)(=O)c2c(F)c(F)c(F)c(F)c2F)cc1` [PSL-3-115] the IC50 (AR230 cells; Table 3) was 5.2 µM, the “Fold Difference” value (AR230^R cells) was 2.26 and the IC50 (AR230^R cells; Table 3) was 2.3 µM.

In the case of `O=C(O)c1ccc(N(Cc2ccc(C3CCOCC3)cc2)C(=O)CN(C2CC2)S(=O)(=O)c2c(F)c(F)c(F)c(F)c2F)cc1` [DR-4-042], the IC50 (AR230 cells; Table 3) is reported as 4.7 µM, the “Fold Difference” value (AR230^R cells) is reported as 1.12 and the IC50 (AR230^R cells; Table 3) is reported as 4.2 µM.

`O=C(O)c1ccc(N(Cc2ccc(C3CCCCC3)cc2)C(=O)CN(C2CC2)S(=O)(=O)c2c(F)c(F)c(F)c(F)c2F)cc1` [DR-3-036] showed an IC50 (AR230 cells; Table 2) of 4.3 µM and an IC50 (AR230^R cells; Table 2) of 2.6 µM.

`CC(C)(C)c1ccc(CN(C(=O)CN(C2CC2)S(=O)(=O)c2c(F)c(F)c(F)c(F)c2F)c2ccc(C(=O)O)cc2)cc1` [DR-3-162, 4-(N-(4-(tert-butyl)benzyl)-2-((N-cyclopropyl-2,3,4,5,6-pentafluorophenyl)sulfonamido)acetamido)benzoic acid] was tested, and the IC50 (AR230 cells; Table 3) was 3.2 µM, the “fold selectivity for AR230^R over AR230 cells” value (AR230^R cells) was 4 fold and the fold more potent (AR230^R cells; AR230^R cells) was 3 fold. The “Fold Difference” value (AR230^R cells) was 4 and the IC50 (AR230^R cells; Table 3) was 0.8 µM.

In the case of `O=C(O)c1ccc(N(Cc2ccc(C(F)(F)F)cc2)C(=O)CN(C2CC2)S(=O)(=O)c2c(F)c(F)c(F)c(F)c2F)cc1` [DR-3-186, 4-(2-(N-cyclopropyl-2,3,4,5,6-pentafluorophenylsulfonamido)-N-(4-(trifluoromethyl)benzyl)acetamido)benzoic acid], the IC50 (AR230 cells) is reported as 1.4 µM, the “fold selectivity for AR230^R over AR230 cells” value (AR230^R cells) is reported as < 2 fold and the “Fold Difference” value (AR230^R cells) is reported as 1.94. For the same molecule, the IC50 (AR230^R cells) was 0.72 µM.

With `O=C(O)c1ccc(N(Cc2ccc(C3CCCC3)cc2)C(=O)CN(C2CC2)S(=O)(=O)c2ccc(F)nc2)cc1` [AM1-116, 4-(N-(4-Cyclopentylbenzyl)-2-((N-cyclopropyl-6-fluoropyridine)-3-sulfonamido)acetamido)benzoic acid] the IC50 (AR230 cells; Table 4) was > 32 µM and the IC50 (AR230^R cells; Table 4) was > 32 µM.

In the case of `O=C(O)c1ccc(N(Cc2ccc(Cl)cc2)C(=O)CN(C2CC2)S(=O)(=O)c2c(F)c(F)c(F)c(F)c2F)cc1` [DR-4-003, 4-(N-(4-Chlorobenzyl)-2-((N-cyclopropyl-2,3,4,5,6-pentafluorophenyl)sulfonamido)acetamido)benzoic acid], the IC50 (AR230 cells; Table 3) is reported as 4.1 µM, the “Fold Difference” value (AR230^R cells) is reported as 2.41 and the IC50 (AR230^R cells; Table 3) is reported as 1.7 µM.

For `O=C(O)c1ccc(N(Cc2ccc(C3CCCC3)cc2)C(=O)CN(C2CC2)S(=O)(=O)c2c(F)c(F)c(C(F)(F)F)c(F)c2F)cc1` [AM1-066, 4-(N-(4-Cyclopentylbenzyl)-2-((N-cyclopropyl-2,3,5,6-tetrafluoro-4-(trifluoromethyl)phenyl)sulfonamido)acetamido)benzoic acid], the IC50 (AR230 cells; Table 4) was 20.4 µM and the IC50 (AR230^R cells; Table 4) was 21.6 µM.

For `O=C(O)c1ccc(N(Cc2ccc(C3CCCC3)cc2)C(=O)CNS(=O)(=O)c2c(F)c(F)c(F)c(F)c2F)cc1` [DR-3-111, 4-(N-(4-Cyclopentylbenzyl)-2-((perfluorophenyl)sulfonamido)acetamido)benzoic acid], the IC50 (AR230 cells) was 11.4 µM, the “fold reduction in activity vs SH-4-54” value (AR230^R cells; AR230^R cells) was ~5 fold and the IC50 (AR230^R cells) was 15.6 µM.

`O=C(O)c1ccc(N(Cc2ccc(C3CCCC3)cc2)C(=O)CN(C2CC2)S(=O)(=O)c2ccc(F)cn2)cc1` [AM1-117, 4-(N-(4-Cyclopentylbenzyl)-2-((N-cyclopropyl-5-fluoropyridine)-2-sulfonamido)acetamido)benzoic acid] was tested, and the IC50 (AR230 cells; Table 4) was > 32 µM and the IC50 (AR230^R cells; Table 4) was > 32 µM.

For `O=C(O)c1ccc(N(Cc2ccc(F)cc2)C(=O)CN(C2CC2)S(=O)(=O)c2c(F)c(F)c(F)c(F)c2F)cc1` [PSL-3-122], the IC50 (AR230 cells; Table 3) was 6.1 µM, the “Fold Difference” value (AR230^R cells) was 2.03 and the IC50 (AR230^R cells; Table 3) was 3 µM.

`CC(C)N(CC(=O)N(Cc1ccc(C2CCCCC2)cc1)c1ccc(C(=O)O)cc1)S(=O)(=O)c1c(F)c(F)c(F)c(F)c1F` [PSL-3-40, 4-(N-(4-cyclohexylbenzyl)-2-(2,3,4,5,6-pentafluoro-N-isopropylphenylsulfonamido)acetamido)benzoic acid] showed an IC50 (AR230 cells) of 8.7 µM and an IC50 (AR230^R cells) of 14.2 µM.

`CC1(C)CCC(c2ccc(CN(C(=O)CN(C3CC3)S(=O)(=O)c3c(F)c(F)c(F)c(F)c3F)c3ccc(C(=O)O)cc3)cc2)CC1` [DR-3-119, 4-(2-((N-Cyclopropyl-2,3,4,5,6-pentafluorophenyl)sulfonamido)-N-(4-(4,4-dimethylcyclohexyl)benzyl)acetamido)benzoic acid] was tested, and the IC50 (AR230 cells; Table 3) was 5.8 µM, the “Fold Difference” value (AR230^R cells) was 1.81 and the IC50 (AR230^R cells; Table 3) was 3.2 µM.

With `O=C(O)c1ccc(N(Cc2ccc(C3CC3)cc2)C(=O)CN(C2CC2)S(=O)(=O)c2c(F)c(F)c(F)c(F)c2F)cc1` [PSL-3-132] the IC50 (AR230 cells; Table 3) was 4.2 µM, the “Fold Difference” value (AR230^R cells) was 1.75 and the IC50 (AR230^R cells; Table 3) was 2.4 µM.

For `O=C(O)c1ccc(N(Cc2ccc(C3CCCC3)cc2)C(=O)CN(C2CC2)S(=O)(=O)c2c(F)c(F)cc(F)c2F)cc1` [AM1-020, 4-(N-(4-Cyclopentylbenzyl)-2-((N-cyclopropyl-2,3,5,6-tetrafluorophenyl)sulfonamido)acetamido)benzoic acid], the IC50 (AR230 cells; Table 4) was > 32 µM and the IC50 (AR230^R cells; Table 4) was 13.1 µM.

With `O=C(O)c1ccc(N(Cc2ccc(C3CCC3)cc2)C(=O)CN(C2CC2)S(=O)(=O)c2c(F)c(F)c(F)c(F)c2F)cc1` [DR-4-020, 4-(N-(4-Cyclobutylbenzyl)-2-((N-cyclopropyl-2,3,4,5,6-pentafluorophenyl)sulfonamido)acetamido)benzoic acid] the IC50 (AR230 cells; Table 3) was 8.6 µM, the “Fold Difference” value (AR230^R cells) was 2.05 and the IC50 (AR230^R cells; Table 3) was 4.2 µM.

`O=C(O)c1ccc(N(Cc2ccc(C3CCCC3)cc2)C(=O)CN(C2CC2)S(=O)(=O)c2c(F)c(F)c(F)c(F)c2F)cc1` [DR-3-093, 4-(N-(4-Cyclopentylbenzyl)-2-((N-cyclopropyl-2,3,4,5,6-pentafluorophenyl)sulfonamido)acetamido)benzoic acid] was tested, and the IC50 (AR230 cells; Table 3) was 3.3 µM, the “Fold Difference” value (AR230^R cells) was 2.75 and the IC50 (AR230^R cells; Table 3) was 1.2 µM.
